From ChEMBL document CHEMBL5143510, “Structure modification and biological evaluation of indole-chalcone derivatives as anti-tumor agents through dual targeting tubulin and TrxR” (Eur J Med Chem, 2022)
Active and inactive are the calls of the source. The calls are words filed in the database; no cut-off is given here.

Tests used:
[1] = Resistance index, ratio of IC50 for antiproliferative activity against vincristine resistant human HCT-8/VCR cells to IC50 for antiproliferative activity against human HCT-8 cells; assay type: functional
A549 = experiment: Antiproliferative activity against human A549 cells assessed as reduction in cell viability incubated for 48 hrs by MTT assay; assay type: functional, cell-based; conditions: A549, 48 h
[2] = Antiproliferative activity against vincristine resistant human HCT-8/VCR cells assessed as reduction in cell viability incubated for 48 hrs by MTT assay; assay type: functional, cell-based
MHCC97H [3] = experiment: Induction of apoptosis in human MHCC97H cells assessed as upregulation of Bad expression measured after 24 to 48 hrs by Western blot analysis; assay type: functional, cell-based; conditions: dose 5-50 nM, time 24-48 hrs, DDE = dose-dependent effect
MCF7 = experiment: Antiproliferative activity against human MCF7 cells assessed as reduction in cell viability incubated for 48 hrs by MTT assay; assay type: functional, cell-based; conditions: MCF7, 48 h
[4] = Selectivity ratio, ratio of IC50 for cytotoxicity against human L02 cells to IC50 for antiproliferative activity against human MHCC97H cells; assay type: toxicity, cell-based; conditions: L02 cells versus MHCC97H cells, read-out: Ratio IC50
MHCC97H [5] = experiment: Induction of oxidative stress in human MHCC97H cells assessed as increase in superoxide anion level at 5 to 50 nM incubated for 4 hrs by DHE based fluorescence microscopy; assay type: functional, cell-based; conditions: dose 5-50 nM
Tubulin (Homo sapiens) [6] = biological target: T1, Tubulin (Homo sapiens) (UniProt P68371+Q9H4B7+P0DPH7+P68366+Q13509+Q71U36+P04350+Q3ZCM7+P07437+P68363+Q9BQE3+Q6PEY2+Q13885+Q9BVA1+Q9BUF5); experiment: Inhibition of colchicine binding to tubulin (unknown origin) at 10 uM by competitive binding assay relative to control; assay type: protein-complex assay
MHCC97H [7] = experiment: Induction of ROS production in human MHCC97H cells assessed as increase in accumulation ROS level at 5 to 50 nM incubated for 4 hrs by DCFH-DA staining based fluorescence microscopy; assay type: functional, cell-based; conditions: dose 5-50 nM
Tubulin (Homo sapiens) [8] = biological target: T1, Tubulin (Homo sapiens); experiment: Binding affinity to tubulin (unknown origin) assessed as reduction in peak area in the filtrate at 30 uM incubated for 1 hr by HPLC analysis; assay type: protein-complex assay
[9] = Selectivity ratio, ratio of IC50 for cytotoxicity against human MCF-10A cells to IC50 for antiproliferative activity against human MHCC97H cells; assay type: toxicity, cell-based; conditions: MCF-10A cells versus MHCC97H cells, read-out: Ratio IC50
MHCC97H [10] = experiment: Induction of apoptosis in human MHCC97H cells assessed as decrease in MMP level incubated for 24 hrs by JC-1 staining based fluorescence microscopy; assay type: functional, cell-based; conditions: dose 5-50 nM, DDE = dose-dependent effect
[11] = Cytotoxicity against human HLF cells assessed as reduction in cell viability incubated for 48 hrs by MTT assay; assay type: toxicity, cell-based
[12] = Selectivity ratio, ratio of IC50 for cytotoxicity against human HLF cells to IC50 for antiproliferative activity against human MHCC97H cells; assay type: toxicity, cell-based; conditions: HLF cells versus MHCC97H cells, read-out: Ratio IC50
[13] = Resistance index, ratio of IC50 for antiproliferative activity against paclitaxel resistant human A2780/PTX cells to IC50 for antiproliferative activity against human A2780 cells; assay type: functional
MHCC97H [14] = experiment: Induction of apoptosis in human MHCC97H cells assessed as chromatin condensation at 5 to 50 nM incubated for 24 hrs by Hoechst 33342 staining based fluorescence microscopy; assay type: functional, cell-based; conditions: dose 5-50 nM
Homo sapiens [15] = organism: Homo sapiens; experiment: Inhibition of TrxR (unknown origin) assessed as alkylation of TrxR by measuring weak band intensity using BIAM as substrate at 10 to 40 uM preincubated for 2 hrs in presence of NADPH followed by substrate addition and measured after 30 mins by Western blot analysis; conditions: dose 10-40 µM, time 2.5 hrs
MHCC97H [16] = experiment: Induction of morphological changes in human MHCC97H cells assessed as loss of adherent property at 5 to 50 nM incubated for 48 hrs by phase contrast microscopic analysis; assay type: functional, cell-based; conditions: dose 5-50 nM
[17] = Cytotoxicity against human MCF-10A cells assessed as reduction in cell viability incubated for 48 hrs by MTT assay; assay type: toxicity, cell-based
MHCC97H [18] = experiment: Antiproliferative activity against human MHCC97H cells assessed as reduction in cell viability incubated for 48 hrs by MTT assay; assay type: functional, cell-based
Tubulin (Homo sapiens) [19] = biological target: T1, Tubulin (Homo sapiens); experiment: Inhibition of colchicine binding to tubulin (unknown origin) at 0.312 uM by competitive binding assay relative to control; assay type: protein-complex assay
MHCC97H [20] = experiment: Antitumor activity against human MHCC97H cells xenografted in BALB/c mouse assessed as tumor volume at 30 mg/kg, ip administered every other day for 30 days; assay type: functional; conditions: time 30 day
MHCC97H [21] = experiment: Downregulation of TrxR in human MHCC97H cells at 5 to 50 nM incubated for 48 hrs by Western blot analysis; assay type: functional, cell-based; conditions: dose 5-50 nM
Tubulin (Homo sapiens) [22] = biological target: T1, Tubulin (Homo sapiens); experiment: Inhibition of colchicine binding to tubulin (unknown origin) at 5.0 uM by competitive binding assay relative to control; assay type: protein-complex assay
Tubulin (Homo sapiens) [23] = biological target: T1, Tubulin (Homo sapiens); experiment: Induction of microtubule disruption in human MHCC97H cells assessed as occurence of cell shrinkage at 10 nM measured after 8 hrs by immunofluorescence based confocal microscopic analysis
[24] = Inhibition of TrxR (unknown origin) using DTNB as substrate incubated for 5 mins in presence of NADPH followed by substrate addition by microplate reader analysis; parameters: species or system Homo sapiens
Tubulin (Homo sapiens) [25] = biological target: T1, Tubulin (Homo sapiens); experiment: Inhibition of colchicine binding to tubulin (unknown origin) at 0.625 uM by competitive binding assay relative to control; assay type: protein-complex assay
Homo sapiens [26] = organism: Homo sapiens; experiment: Irreversible inhibition of TrxR (unknown origin) using DTNB as substrate at 5 uM incubated for 2 hrs in presence of NADPH followed by substrate addition ultrafiltration based microplate reader analysis relative to control
MHCC97H [27] = experiment: Induction of morphological changes in human MHCC97H cells assessed as membrane blebbing at 5 to 50 nM incubated for 48 hrs by phase contrast microscopic analysis; assay type: functional, cell-based; conditions: dose 5-50 nM
Tubulin (Homo sapiens) [28] = biological target: T1, Tubulin (Homo sapiens); experiment: Induction of microtubule disruption in human MHCC97H cells assessed as occurence of cell shrinkage at 10 nM incubated for 8 hrs followed by compound washout and measured after 24 hrs by immunofluorescence based confocal microscopic analysis
MHCC97H [29] = experiment: Induction of apoptosis in human MHCC97H cells assessed as upregulation of Bax expression measured after 24 to 48 hrs by Western blot analysis; assay type: functional, cell-based; conditions: dose 5-50 nM, time 24-48 hrs, DDE = dose-dependent effect
Tubulin [30] = experiment: Inhibition of colchicine binding to tubulin (unknown origin) by competitive binding assay; assay type: protein-complex assay, Homo sapiens
Tubulin [31] = experiment: Inhibition of tubulin polymerization (unknown origin) assessed as decrease in fluorescence intensity incubated for 90 mins by DAPI staining based microplate reader analysis; assay type: protein-complex assay, Homo sapiens
MHCC97H [32] = experiment: Induction of apoptosis in human MHCC97H cells assessed as decrease in MMP level incubated for 24 hrs by JC-1 staining based flow cytometry; assay type: functional, cell-based; conditions: dose 5-50 nM, DDE = dose-dependent effect
Tubulin (Homo sapiens) [33] = biological target: T1, Tubulin (Homo sapiens); experiment: Inhibition of colchicine binding to tubulin (unknown origin) at 0.156 uM by competitive binding assay relative to control; assay type: protein-complex assay
NCI/ADR-RES = experiment: Downregulation of TrxR in adriamycin resistant human MCF7/ADR cells at 10 to 50 nM incubated for 48 hrs by Western blot analysis; assay type: functional, cell-based; conditions: dose 10-50 nM

COc1ccc2c(/C=C(\C)C(=O)c3cc(OC)c(OC)c([Se]C)c3)c[nH]c2c1
Ratio IC50 [1]: 1.56
IC50 (A549): 8 nM
IC50 [2]: 45 nM
Activity (MHCC97H [3]): Dde
IC50 (MCF7): 35 nM
selectivity ratio [4]: 66.3
Activity (MHCC97H [5]): Active
inhibition (Tubulin (Homo sapiens) [6]): 94.4%
Activity (MHCC97H [7]): Active
Activity (Tubulin (Homo sapiens) [8]): Active
selectivity ratio [9]: 121
Activity (MHCC97H [10]): Dde
IC50 at 48 h [11]: 2370 nM
selectivity ratio [12]: 394
Ratio IC50 [13]: 1.11
Activity (MHCC97H [14]): Active
inhibition (Homo sapiens [15]): Active
Activity (MHCC97H [16]): Active
IC50 at 48 h [17]: 723 nM
IC50 (MHCC97H [18]): 6 nM
inhibition (Tubulin (Homo sapiens) [19]): 30.7%
Activity (MHCC97H [20]): 419.7 mm3
Activity (MHCC97H [21]): Active
inhibition (Tubulin (Homo sapiens) [22]): 86.8%
Activity (Tubulin (Homo sapiens) [23]): Active
IC50 [24]: 3730 nM
inhibition (Tubulin (Homo sapiens) [25]): 45%
inhibition (Homo sapiens [26]): 84%
Activity (MHCC97H [27]): Active
Activity (Tubulin (Homo sapiens) [28]): Active
Activity (MHCC97H [29]): Dde
IC50 (Tubulin [30]): 1300 nM
IC50 (Tubulin [31]): 810 nM
Activity (MHCC97H [32]): Dde
inhibition (Tubulin (Homo sapiens) [33]): 24.9%
Activity (NCI/ADR-RES): Active
